Measured values from patent US4613355A, “Antibiotic having herbicidal activity” (Satoshi Omura, priority 1983, dated 1986).

Key:
Assay type in all cases: in vivo
[1] = tested on: Larix leptolepis; experiment: Foliage treatment of woody plants (Example 10); set-up: key: 0 indicates no effect; 5 indicates complete kill; conditions: Plant No. 23 Larix leptolepis
Source text: (§1) Aqueous solutions containing Phosalacine (Na salt) at different concentrations and 0.1% of octylphenylpolyoxy ethanol as surfactant were applied at a rate of 1500 liter per hectare to woody plants of about 60-70 cm in height. 7 and 14 days after the foliage treatment, damage to the plants was visually assessed on a scale of from 0 to 5 (cf. Example 7).

[2] = tested on: Castanea crenata; experiment: Foliage treatment of woody plants (Example 10); set-up: key: 0 indicates no effect; 5 indicates complete kill; conditions: Plant No. 8 Castanea crenata
Source text: as §1

[3] = tested on: Picea densiflora; experiment: Foliage treatment of woody plants (Example 10); set-up: key: 0 indicates no effect; 5 indicates complete kill; conditions: Plant No. 22 Picea densiflora
Source text: as §1

[4] = tested on: Oryzae sativa; experiment: Foliage treatment (Example 8); set-up: key: 0 indicates no effect; 5 indicates complete kill; conditions: Plant No. 25 Oryzae sativa
Protocol: (§2) Aqueous solutions of Phosalacine (Na salt) at different concentrations were applied at a rate of 1500 liters per hectare to naturally occurring plants or plants which were cultured on plates as shown in the following Table at certain stages of growth. […] One month after the foliage treatment, the inhibition of regrowth of the plants was visually investigated.

[5] = tested on: Helianthus tuberosus; experiment: Foliage treatment (Example 8); set-up: key: 0 indicates no effect; 5 indicates complete kill; conditions: Plant No. 12 Helianthus tuberosus
Protocol: as §2

[6] = tested on: Pleioblastus chino; experiment: Foliage treatment (Example 8); set-up: key: 0 indicates no effect; 5 indicates complete kill; conditions: Plant No. 11 Pleioblastus chino
Protocol: as §2

[7] = tested on: Rumex obtusifolius; experiment: Foliage treatment (Example 8); set-up: key: 0 indicates no effect; 5 indicates complete kill; conditions: Plant No. 14 Rumex obtusifolius
Protocol: as §2

[8] = tested on: Daucus carota; experiment: Foliage treatment (Example 8); set-up: key: 0 indicates no effect; 5 indicates complete kill; conditions: Plant No. 29 Daucus carota
Protocol: as §2

[9] = tested on: Cayratia japonica; experiment: Foliage treatment (Example 8); set-up: key: 0 indicates no effect; 5 indicates complete kill; conditions: Plant No. 13 Cayratia japonica
Protocol: as §2

[10] = tested on: Triticum aestivum; experiment: Foliage treatment (Example 8); set-up: key: 0 indicates no effect; 5 indicates complete kill; conditions: Plant No. 26 Triticum aestivum
Protocol: as §2

[11] = tested on: Solanum melongena; experiment: Foliage treatment (Example 8); set-up: key: 0 indicates no effect; 5 indicates complete kill; conditions: Plant No. 31 Solanum melongena
Protocol: as §2

[12] = tested on: Pueraria lobata; experiment: Foliage treatment (Example 8); set-up: key: 0 indicates no effect; 5 indicates complete kill; conditions: Plant No. 16 Pueraria lobata
Protocol: as §2

[13] = tested on: Imperata cyrindrica; experiment: Foliage treatment (Example 8); set-up: key: 0 indicates no effect; 5 indicates complete kill; conditions: Plant No. 15 Imperata cyrindrica
Protocol: as §2

[14] = tested on: Chamaecyparis obtusa; experiment: Foliage treatment of woody plants (Example 10); set-up: key to damage to the plants, scale 0 to 5: 0 indicates no effect; 5 indicates complete kill; conditions: CH Chamaecyparis obtusa
Source text: as §1

[15] = tested on: Cryptomeria japonica; experiment: Foliage treatment of woody plants (Example 10); set-up: key to damage to the plants, scale 0 to 5: 0 indicates no effect; 5 indicates complete kill; conditions: CP Cryptomeria japonica
Source text: as §1

Compound: C[C@H](NC(=O)[C@H](C)NC(=O)[C@@H](N)CCP(C)(=O)[O-])C(=O)O.[Na+] [SF, reference compound]
- damage to the plants, scale 0 to 5 ([1]; 0.125%, 7 days): 4
- damage to the plants, scale 0 to 5 ([1]; 0.125%, 14 days): 5
- damage to the plants, scale 0 to 5 ([1]; 0.25%, 7 days): 4
- damage to the plants, scale 0 to 5 ([1]; 0.25%, 14 days): 5
- damage to the plants, scale 0 to 5 ([1]; 0.5%, 7 days): 4
- damage to the plants, scale 0 to 5 ([1]; 0.5%, 14 days): 5
- damage to the plants, scale 0 to 5 ([2]; 0.125%, 7 days): 5
- damage to the plants, scale 0 to 5 ([2]; 0.125%, 14 days): 5
- damage to the plants, scale 0 to 5 ([2]; 0.25%, 7 days): 5
- damage to the plants, scale 0 to 5 ([2]; 0.25%, 14 days): 5
- damage to the plants, scale 0 to 5 ([2]; 0.5%, 7 days): 5
- damage to the plants, scale 0 to 5 ([2]; 0.5%, 14 days): 5
- damage to the plants, scale 0 to 5 ([3]; 0.125%, 7 days): 4
- damage to the plants, scale 0 to 5 ([3]; 0.125%, 14 days): 5
- damage to the plants, scale 0 to 5 ([3]; 0.25%, 7 days): 4
- damage to the plants, scale 0 to 5 ([3]; 0.25%, 14 days): 5
- damage to the plants, scale 0 to 5 ([3]; 0.5%, 7 days): 4
- damage to the plants, scale 0 to 5 ([3]; 0.5%, 14 days): 5
- damage to the plants, scale 0 to 5 ([4]; 0.1%, 7 days): 3
- damage to the plants, scale 0 to 5 ([4]; 0.1%, 14 days): 4
- damage to the plants, scale 0 to 5 ([4]; 0.2%, 7 days): 4
- damage to the plants, scale 0 to 5 ([4]; 0.2%, 14 days): 5
- damage to the plants, scale 0 to 5 ([5]; 0.1%, 7 days): 3
- damage to the plants, scale 0 to 5 ([5]; 0.1%, 14 days): 4
- damage to the plants, scale 0 to 5 ([5]; 0.2%, 7 days): 4
- damage to the plants, scale 0 to 5 ([5]; 0.2%, 14 days): 5
- damage to the plants, scale 0 to 5 ([6]; 0.1%, 7 days): 3
- damage to the plants, scale 0 to 5 ([6]; 0.1%, 14 days): 4
- damage to the plants, scale 0 to 5 ([6]; 0.2%, 7 days): 4
- damage to the plants, scale 0 to 5 ([6]; 0.2%, 14 days): 5
- damage to the plants, scale 0 to 5 ([7]; 0.1%, 7 days): 3
- damage to the plants, scale 0 to 5 ([7]; 0.1%, 14 days): 4
- damage to the plants, scale 0 to 5 ([7]; 0.2%, 7 days): 4
- damage to the plants, scale 0 to 5 ([7]; 0.2%, 14 days): 5
- damage to the plants, scale 0 to 5 ([8]; 0.1%, 7 days): 2
- damage to the plants, scale 0 to 5 ([8]; 0.1%, 14 days): 4
- damage to the plants, scale 0 to 5 ([8]; 0.2%, 7 days): 3
- damage to the plants, scale 0 to 5 ([8]; 0.2%, 14 days): 5
- damage to the plants, scale 0 to 5 ([9]; 0.1%, 7 days): 3
- damage to the plants, scale 0 to 5 ([9]; 0.1%, 14 days): 4
- damage to the plants, scale 0 to 5 ([9]; 0.2%, 7 days): 4
- damage to the plants, scale 0 to 5 ([9]; 0.2%, 14 days): 5
- damage to the plants, scale 0 to 5 ([10]; 0.1%, 7 days): 3
- damage to the plants, scale 0 to 5 ([10]; 0.1%, 14 days): 4
- damage to the plants, scale 0 to 5 ([10]; 0.2%, 7 days): 4
- damage to the plants, scale 0 to 5 ([10]; 0.2%, 14 days): 5
- damage to the plants, scale 0 to 5 ([11]; 0.1%, 7 days): 3
- damage to the plants, scale 0 to 5 ([11]; 0.1%, 14 days): 4
- damage to the plants, scale 0 to 5 ([11]; 0.2%, 7 days): 5
- damage to the plants, scale 0 to 5 ([11]; 0.2%, 14 days): 5
- damage to the plants, scale 0 to 5 ([12]; 0.1%, 7 days): 3
- damage to the plants, scale 0 to 5 ([12]; 0.1%, 14 days): 4
- damage to the plants, scale 0 to 5 ([12]; 0.2%, 7 days): 4
- damage to the plants, scale 0 to 5 ([12]; 0.2%, 14 days): 5
- damage to the plants, scale 0 to 5 ([13]; 0.1%, 7 days): 3
- damage to the plants, scale 0 to 5 ([13]; 0.1%, 14 days): 4
- damage to the plants, scale 0 to 5 ([13]; 0.2%, 7 days): 4
- damage to the plants, scale 0 to 5 ([13]; 0.2%, 14 days): 5
- damage to the plants, scale 0 to 5 ([14]; 0.125%, 7 days): 0
- damage to the plants, scale 0 to 5 ([14]; 0.125%, 14 days): 0
- damage to the plants, scale 0 to 5 ([14]; 0.25%, 7 days): 0
- damage to the plants, scale 0 to 5 ([14]; 0.25%, 14 days): 0
- damage to the plants, scale 0 to 5 ([14]; 0.5%, 7 days): 0
- damage to the plants, scale 0 to 5 ([14]; 0.5%, 14 days): 0
- damage to the plants, scale 0 to 5 ([15]; 0.125%, 7 days): 0
- damage to the plants, scale 0 to 5 ([15]; 0.125%, 14 days): 0
- damage to the plants, scale 0 to 5 ([15]; 0.25%, 7 days): 0
- damage to the plants, scale 0 to 5 ([15]; 0.25%, 14 days): 1
- damage to the plants, scale 0 to 5 ([15]; 0.5%, 7 days): 0
- damage to the plants, scale 0 to 5 ([15]; 0.5%, 14 days): 2
